The target of this assay is T1, human liver glycogen phosphorylase a (HLGPa) (Homo sapiens, UniProt P06737).
T1 construct: creating a full-length cDNA fused at the 5′ end to codons for methionine-glycine-alanine-histidine; 6xHis tag (leader Met-Gly-Ala-His6-Gly-Gly) (N); made in house; host or cells: E. coli (bacterial expression plasmid pTXK1007LTev)
T1 sequence (P06737 2-847 limits assumed): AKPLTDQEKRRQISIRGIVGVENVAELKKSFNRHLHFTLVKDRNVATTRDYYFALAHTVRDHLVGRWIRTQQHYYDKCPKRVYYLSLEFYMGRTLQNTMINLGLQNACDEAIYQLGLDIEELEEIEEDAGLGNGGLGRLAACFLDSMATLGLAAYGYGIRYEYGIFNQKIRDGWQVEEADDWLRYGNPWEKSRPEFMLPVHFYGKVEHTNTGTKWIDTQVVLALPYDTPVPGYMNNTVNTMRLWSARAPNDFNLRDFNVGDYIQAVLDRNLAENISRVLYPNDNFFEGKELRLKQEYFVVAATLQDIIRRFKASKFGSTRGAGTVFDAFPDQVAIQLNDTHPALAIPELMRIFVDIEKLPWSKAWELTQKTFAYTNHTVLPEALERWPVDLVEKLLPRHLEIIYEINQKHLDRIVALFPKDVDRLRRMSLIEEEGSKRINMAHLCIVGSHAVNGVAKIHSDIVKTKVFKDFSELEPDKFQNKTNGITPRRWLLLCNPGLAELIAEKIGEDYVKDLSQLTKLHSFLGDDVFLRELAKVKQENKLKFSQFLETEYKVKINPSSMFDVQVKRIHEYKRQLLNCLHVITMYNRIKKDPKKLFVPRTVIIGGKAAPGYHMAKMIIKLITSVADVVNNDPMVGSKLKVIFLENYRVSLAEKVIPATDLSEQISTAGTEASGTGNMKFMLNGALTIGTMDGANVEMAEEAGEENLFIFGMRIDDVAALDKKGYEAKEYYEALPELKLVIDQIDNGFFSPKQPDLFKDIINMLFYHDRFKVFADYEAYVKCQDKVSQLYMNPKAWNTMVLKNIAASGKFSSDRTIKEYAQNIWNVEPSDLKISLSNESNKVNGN
Put plainly: Human liver glycogen phosphorylase a enzymatic activity assay (coupled, fluorescent resorufin readout, with and without 10 mM glucose). The assay is classed as biochemical. To be noted: human liver glycogen phosphorylase a; table does not say whether with or without 10 mM glucose.

The structures appear in SMILES notation.

The text below walks through data of US20070249670A1, “Glycogen Phosphorylase Inhibitor Compounds and Pharmaceutical Compositions Thereof” (SMITHKLINE BEECHAM CORPORATION, priority 2004, published 2007).

A word on the IC50: it is the point on the concentration scale where inhibition reaches its midpoint. Read a high IC50 as weaker potency.

The compound `CCCC(=O)N1CCC(NC(=O)c2cc3ccccc3cc2NC(=O)Nc2c(C)cc(C)cc2C)(C(=O)O)CC1` [Example 290, 1-Butanoyl-4-({[3-({[(2,4,6-trimethylphenyl)amino]carbonyl}amino)-2-naphthalenyl]carbonyl}amino)-4-piperidinecarboxylic acid] had an IC50 of 1240 nM.

With `O=C1CCC(NC(=O)c2cc3ccccc3cc2NC(=O)Nc2c(Cl)cccc2Cl)(C(=O)O)CC1` [Example 292, 1-({[3-({[(2,6-dichlorophenyl)amino]carbonyl}amino)-2-naphthalenyl]carbonyl}amino)-4-oxocyclohexanecarboxylic acid], the IC50 is 6590 nM.

As to `Cc1cc(C)c(NC(=O)Nc2cc3ccccc3cc2C(=O)NC2(C(=O)O)CCC(NCc3ccccc3)CC2)c(C)c1` (stereo not shown) [Example 294, 4-[(phenylmethyl)amino]-1-({[3-({[(2,4,6-trimethylphenyl)amino]carbonyl}amino)-2-naphthalenyl]carbonyl}amino)cyclohexanecarboxylic acid], the IC50 worked out at 2530 nM.

Turning to `Cc1cc(C)c(NC(=O)Nc2cc3ccccc3cc2C(=O)NC2(C(=O)O)CCC(NCc3ccccc3)CC2)c(C)c1` (stereo not shown) [Example 295, 4-[(phenylmethyl)amino]-1-({[3-({[(2,4,6-trimethylphenyl)amino]carbonyl}amino)-2-naphthalenyl]carbonyl}amino)cyclohexanecarboxylic acid], the 50% inhibitory concentration (IC50) worked out at 5560 nM.

`Cc1cc(C)c(NC(=O)Nc2cc3ccccc3cc2C(=O)NC2(C(=O)O)CCC(=NO)CC2)c(C)c1` (stereo not shown) [Example 296, 4-(hydroxyimino)-1-({[3-({[(2,4,6-trimethylphenyl)amino]carbonyl}amino)-2-naphthalenyl]carbonyl}amino)cyclohexanecarboxylic acid]: the IC50 was 540 nM.

For the compound `Cc1cc(C)c(NC(=O)Nc2nc3ccccc3cc2C(=O)N[C@H](C(=O)O)C2CCCCC2)c(C)c1` [Example 297, (2S)-cyclohexyl({[2-({[(2,4,6-trimethylphenyl)amino]carbonyl}amino)-3-quinolinyl]carbonyl}amino)ethanoic acid], the concentration for half-maximal inhibition (IC50) stood at 15600 nM.

Compound `O=C(Nc1cc2ccccc2nc1C(=O)N[C@H](C(=O)O)C1CCCCC1)Nc1c(Cl)cccc1Cl` [Example 298, (2S)-Cyclohexyl({[3-({[(2,6-dichlorophenyl)amino]carbonyl}amino)-2-quinolinyl]carbonyl}amino)ethanoic acid] showed an IC50 of 150 nM.

In the case of `O=C(Nc1cc2ccccc2nc1C(=O)N[C@H](C(=O)O)C1CCCCC1)Nc1c(Cl)cc(Cl)cc1Cl` [Example 299, (2S)-Cyclohexyl({[3-({[(2,4,6-trichlorophenyl)amino]carbonyl}amino)-2-quinolinyl]carbonyl}amino)ethanoic acid], the half-inhibitory concentration (IC50) was determined as 480 nM.

Compound `Cc1cc(C)c(NC(=O)Nc2cc3ccccc3nc2C(=O)N[C@H](C(=O)O)C2CCCCC2)c(C)c1` [Example 300, (2S)-Cyclohexyl({[3-({[(2,4,6-trimethylphenyl)amino]carbonyl}amino)-2-quinolinyl]carbonyl}amino)ethanoic acid] showed an IC50 of 27 nM.

For `O=C(Nc1cc2ccccc2cc1C(=O)NC1(C(=O)O)CCCCCC1)Nc1c(Cl)cc(Cl)cc1Cl` [Example 301, 1-({[3-({[(2,4,6-Trichlorophenyl)amino]carbonyl}amino)-2-naphthalenyl]carbonyl}amino)cycloheptanecarboxylic acid], inhibition was half-maximal at 350 nM (IC50). Against the preceding compound, the IC50 is about 13-fold higher.

As for `O=C(Nc1cc2ccccc2cc1C(=O)NC1(C(=O)O)CCCCCCC1)Nc1c(Cl)cc(Cl)cc1Cl` [Example 303, 1-({[3-({[(2,4,6-trichlorophenyl)amino]carbonyl}amino)-2-naphthalenyl]carbonyl}amino)cyclooctanecarboxylic acid], inhibition was half-maximal at 57 nM (IC50).

The compound `Cc1cc(C)c(NC(=O)Nc2cc3ccccc3nc2C(=O)NC2(C(=O)O)CCCCCC2)c(C)c1` [Example 306, 1-({[3-({[(2,4,6-trimethylphenyl)amino]carbonyl}amino)-2-quinolinyl]carbonyl}amino)cycloheptanecarboxylic acid] registered a concentration for half-maximal inhibition (IC50) of 11 nM. This IC50 is about 5.2-fold lower than that of the compound before.

`Cc1cc(C)c(NC(=O)Nc2cc3ccccc3nc2C(=O)NC2(C(=O)O)CCCCCCC2)c(C)c1` [Example 307, 1-({[3-({[(2,4,6-trimethylphenyl)amino]carbonyl}amino)-2-quinolinyl]carbonyl}amino)cyclooctanecarboxylic acid] came in with an IC50 of 2 nM.

In turn, `Cc1cc(Br)cc(C)c1NC(=O)Nc1cc2ccccc2cc1C(=O)NC1(C(=O)O)CCCCCC1` [Example 308, 1-({[3-({[(4-bromo-2,6-dimethylphenyl)amino]carbonyl}amino)-2-naphthalenyl]carbonyl}amino)cycloheptanecarboxylic acid] had an IC50 of 250 nM.

The compound `CCCc1cc(C)c(NC(=O)Nc2cc3ccccc3cc2C(=O)NC2(C(=O)O)CCCCCC2)c(C)c1` [Example 309, 1-({[3-({[(2,6-dimethyl-4-propylphenyl)amino]carbonyl}amino)-2-naphthalenyl]carbonyl}amino)cycloheptanecarboxylic acid] registered a 50% inhibitory concentration (IC50) of 11 nM. Against the preceding compound, the IC50 is about 23-fold lower.

As to `Cc1cc(C)c(NC(=O)Nc2cc3ccccc3nc2C(=O)N[C@](C)(C(=O)O)C2CCCCC2)c(C)c1` [Example 312, 2-Cyclohexyl-N-{[3-({[(2,4,6-trimethylphenyl)amino]carbonyl}amino)-2-quinolinyl]carbonyl}-D-alanine], 230 nM corresponded to half-maximal inhibition (IC50).

Compound `CCCC[C@H](NC(=O)c1nc2ccccc2cc1NC(=O)Nc1c(C)cc(C)cc1C)C(=O)O` [Example 313, N-{[3-({[(2,4,6-trimethylphenyl)amino]carbonyl}amino)-2-quinolinyl]carbonyl}-L-norleucine] showed an IC50 of 160 nM.

The compound `CCCC[C@H](NC(=O)c1nc2ccccc2cc1NC(=O)Nc1c(Cl)cccc1Cl)C(=O)O` [Example 314, N-{[3-({[(2,6-dichlorophenyl)amino]carbonyl}amino)-2-quinolinyl]carbonyl}-L-norleucine] came in with an IC50 of 1800 nM.

`CCCC(CCC)(NC(=O)c1cc2ccccc2cc1NC(=O)Nc1c(Cl)cccc1Cl)C(=O)O` [Example 316, N-{[3-({[(2,6-dichlorophenyl)amino]carbonyl}amino)-2-naphthalenyl]carbonyl}-2-propylnorvaline]: the IC50 was determined as 360 nM.

Turning to `Cc1cc(C)c(NC(=O)Nc2cc(Cl)cnc2C(=O)N[C@H](C(=O)O)C2CCCCC2)c(C)c1` [Example 317, (2S)-({[5-chloro-3-({[(2,4,6-trimethylphenyl)amino]carbonyl}amino)-2-pyridinyl]carbonyl}amino)(cyclohexyl)ethanoic acid], the IC50 was 920 nM.

Turning to `Cc1cc(C)c(NC(=O)Nc2cc(Cl)cnc2C(=O)NC2(C(=O)O)CCCCCC2)c(C)c1` [Example 319, 1-({[5-chloro-3-({[(2,4,6-trimethylphenyl)amino]carbonyl}amino)-2-pyridinyl]carbonyl}amino)cycloheptanecarboxylic acid], the half-inhibitory concentration (IC50) was determined as 470 nM.

Compound `CCCc1cc(C)c(NC(=O)Nc2cc(Cl)cnc2C(=O)NC2(C(=O)O)CCCCCCC2)c(C)c1` [Example 320, 1-({[5-Chloro-3-({[(2,6-dimethyl-4-propylphenyl)amino]carbonyl}amino)-2-pyridinyl]carbonyl}amino)cyclooctanecarboxylic acid] came in with an IC50 of 38 nM.
